Reference: patent US20060228752A1, “Genetic polymorphisms in the preprotachykinin gene” (priority 2002, published 2006)

Key:
Type in all cases: in vivo, human
[1] = tested on: apomorphine-induced vomiting and retching; assay: Emesis test (apomorphine challenge), Single Ascending Dose study (SAD)
Experimental: (§1) The described emesis test was performed in two studies. A Single Ascending Dose study (SAD) and a Multiple Ascending Dose study (MAD). In the SAD the emesis test was performed 6 and/or 24 hrs after intake of 2-(3,5-bis-trifluoromethyl-phenyl)-N-methyl-N-(6-morpholin-4-yl-4-o-tolyl-pyridin-3-yl)-isobutyramide. In the MAD the emesis test was performed after 14 once daily doses, 6 or 24 hrs after the last dose.
In the SAD on study day 1 doses of 5, 10, 20, 40, 80, 160, 230 and 400 mg 2-(3,5-bis-trifluoromethyl-phenyl)-N-methyl-N-(6-morpholin-4-yl-4-o-tolyl-pyridin-3-yl)-isobutyramide were administered to the subjects orally as a drinking emulsion. At either 6 or 24 hours after the administration of the drug the subjects received a subcutaneous injection of 50 μg/kg of apomorphine in the lower part of the abdomen. The time of apomorphine administration was recorded. The subjects were brought into an upright sitting position immediately after the injection. They remained in this position until vomiting occurred or for at least 1 hour after the apomorphine injection. Vomiting is defined as regurgitation of approximately 25 ml or more of gastric contents. A retch is defined as a regurgitation producing less or no gastric content.
Nausea and/or vomiting was expected to occur on average within 10 minutes after the injection. […] The number of vomits and retches were recorded. […]

[2] = tested on: apomorphine-induced vomiting and retching; assay: Emesis test (apomorphine challenge), Multiple Ascending Dose study (MAD); details: 14 once daily doses, test on day 14, 6 or 24 hrs after last dose
Experimental: as §1, with “dose. Subjects were dosed for 14 days with 2-(3,5-bis-trifluoromethyl-phenyl)-N-methyl-N-(6-morpholin-4-yl-4-o-tolyl-pyridin-3-yl)-isobutyramide. On day 14 the test was carried out as described in the SAD.” for “dose.”

[3] = tested on: apomorphine-induced vomiting and retching; assay: Emesis test response by NKNA position 41172 genotype (SAD and MAD participants); details: plasma concentration >20 ng/ml; responder = ≦3 retches and vomits
Experimental: FIG. 4: 2×2 Contingency table for 29 position 41172 genotype test results with concentration before emesis test >20 ng/ml 2-(3,5-bis-trifluoromethyl-phenyl)-N-methyl-N-(6-morpholin-4-yl-4-o-tolyl-pyridin-3-yl)-isobutyramide. Effect=yes: number of vomits+retches≦3. Fisher's Exact Test (two-sided): p=0.033. The genotypes of the subjects were classified according to the following categories: 0-2 are allele 2 (nucleotide G) homozygotes (two copies of allele 2, no copies of allele 1); not 0-2 include allelel (nucleotide A) homozygotes 2-0 (two copies of allele 1, no copies of allele 2) and heterozygotes 1-1 (one copy of allele 1 and one copy of allele 2).
Three genetic markers were selected based on the results from polymorphism discovery in the NKNA gene. Samples were genotyped for these single nucleotide polymorphisms by a kinetic PCR method described by Germer et al., Genome Res. (2000), 10, 258-266 with the modification of using single sample for each reaction instead of pooling samples. This method allows discrimination of single nucleotide polymorphisms without the use of fluorescent probes.
All participants of the SAD and MAD were tested for the single nucleotide polymorphism at position 41172 of the NKNA gene as defined by position in FIG. 2.

Compound: Cc1ccccc1-c1cc(N2CCOCC2)ncc1N(C)C(=O)C(C)(C)c1cc(C(F)(F)F)cc(C(F)(F)F)c1 [2-(3,5-bis-trifluoromethyl-phenyl)-N-methyl-N-(6-morpholin-4-yl-4-o-tolyl-pyridin-3-yl)-isobutyramide]
- average number of retches and vomits at the plateau reached with the blockade ([1]; apomorphine 50 μg/kg s.c. 6 or 24 hrs after oral drug): 3
- plasma concentration at which efficacious levels are reached (minimal concentration to achieve efficacy) ([1]; oral drinking emulsion 5-400 mg, apomorphine 50 μg/kg s.c. 6 or 24 hrs after drug, efficacy = plateau of 3 retches and vomits): 20 ng/mL
- emesis test result in MAD [2]: consistent with the SAD
- response to treatment of subjects with G at position 41172 of the NKNA gene versus subjects without it or heterozygous [3]: responding with a higher efficacy
